The values below come from PMC6006285, “Specific stereochemistry of OP-1074 disrupts estrogen receptor alpha helix 12 and confers pure antiestrogenic activity” (Nature Communications, 2018).

Read-outs that look alike come from different tables or passages of the source.

One assay has as its target T1, androgen receptor (AR) (Homo sapiens, UniProt P10275).
T1 construct: HeLa cells were transfected as above but also with plasmids for full length wild; expressed in transfected cells; host or cells: HeLa
T1 sequence (P10275 1-920): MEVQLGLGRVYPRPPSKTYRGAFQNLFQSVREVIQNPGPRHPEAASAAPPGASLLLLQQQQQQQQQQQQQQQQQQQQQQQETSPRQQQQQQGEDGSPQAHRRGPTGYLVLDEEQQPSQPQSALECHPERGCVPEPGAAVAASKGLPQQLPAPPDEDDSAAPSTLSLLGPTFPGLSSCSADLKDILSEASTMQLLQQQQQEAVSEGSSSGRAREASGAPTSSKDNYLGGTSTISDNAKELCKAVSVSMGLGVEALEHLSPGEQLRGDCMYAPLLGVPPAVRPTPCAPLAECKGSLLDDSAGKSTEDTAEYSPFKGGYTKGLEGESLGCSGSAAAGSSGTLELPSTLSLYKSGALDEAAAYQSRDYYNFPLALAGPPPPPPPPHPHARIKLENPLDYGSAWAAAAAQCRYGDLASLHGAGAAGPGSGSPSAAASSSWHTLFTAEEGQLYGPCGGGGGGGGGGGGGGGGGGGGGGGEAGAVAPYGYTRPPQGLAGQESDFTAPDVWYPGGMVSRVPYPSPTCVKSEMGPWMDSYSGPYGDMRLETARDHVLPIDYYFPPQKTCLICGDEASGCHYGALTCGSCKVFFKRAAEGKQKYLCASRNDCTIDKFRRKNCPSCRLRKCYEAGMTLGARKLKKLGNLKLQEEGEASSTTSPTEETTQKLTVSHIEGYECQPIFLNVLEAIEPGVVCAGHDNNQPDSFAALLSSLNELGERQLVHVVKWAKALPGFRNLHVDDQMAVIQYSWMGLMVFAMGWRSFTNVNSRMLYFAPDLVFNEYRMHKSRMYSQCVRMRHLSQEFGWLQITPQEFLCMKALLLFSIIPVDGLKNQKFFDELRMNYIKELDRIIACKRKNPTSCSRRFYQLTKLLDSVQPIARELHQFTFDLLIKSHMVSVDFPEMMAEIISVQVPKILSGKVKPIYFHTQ
Nature of the assay: PRE3X-TATA-Luc reporter in HeLa cells transfected with AR. The following applies: alone or + 32 nM R1881, 22 h. It counts as cell-based. The protocol:
representative experiment. […]
receptor (AR, (B)), glucocorticoid receptor (GR, (C)), and the B-isoform of the progesterone receptor (PR-B, (D)). HeLa cells were transfected with the designated wild type receptor along with reporter gene PRE3X-TATA-Luc, which is promiscuously activated with known agonists specific for each receptor: R1881 for AR, dexamethasone (Dex) for GR, and medroxyprogesterone acetate (MPA) for PR-B. Each receptor was also dosed with one concentration of known antagonist for each receptor: 32 nM bicalutamide for AR, and 500 nM RU486 for GR and PR. Transfected cells were treated with the designated ligands for 22 hours and luciferase activity assayed. Shown are representative experiments, independently performed at least 3 times. Note that curves for agonists for each receptor were performed in separate experiments. Shown are means with SEM, normalized to percent of 32 nM R1881 for AR, 32 nM Dex for GR, and 0.5 µM MPA for PR-B (except with MPA alone, which was normalized to […]
either ERα or ERβ, and 85 ng ERE-3x-Luc, containing 3 copies of estrogen-response element (ERE) cloned into pGL4.23 luciferase reporter gene containing a minimal TATA promoter […]
hours (1.25% total final charcoal dextran stripped FBS). Bright Glo luciferase reagent (Promega) […]

The next assay relates to MCF-7 cells. Nature of the assay: Inhibition of E2-stimulated proliferation of MCF-7 cells. As to conditions: Homo sapiens. It counts as cell-based.
Assay [1] concerns E2-stimulated AP activity in Ishikawa cells. Nature of the assay: Alkaline phosphatase (AP) assay, antagonist mode (presence of 500 pM E2). Format: cell-based, human. The protocol: Our primary screen to distinguish pure antiestrogens from SERMs was induction of alkaline phosphatase (AP) activity in Ishikawa uterine cells. […] The reference SERM used in our screen was endoxifen (N-desmethyl-4-hydroxytamoxifen), the most abundant bioactive metabolite of tamoxifen.
Shown is a representative figure analyzed and presented as above.
At least 4 h later cells were treated with antiestrogens and media was diluted to 2.5% stripped FBS. Cells were incubated for 3 days, media removed and plates frozen at −80 °C. Thawed plates were incubated with a chromogenic substrate of AP, p-nitrophenyl phosphate (ThermoFisher Scientific, #36721), for 40–60 min at 40 °C, and absorbance read at 405 nm on the Varioskan Lux multimodal plate reader (ThermoFisher Scientific, #VLBL00D0).

The subject of the next assay is CAMA-1 cells. As to the kind of experiment: Inhibition of E2-stimulated proliferation of CAMA-1 cells. It counts as cell-based. As to conditions: Homo sapiens, CAMA-1, 192 h; read-out: CAMA-1 IC50 proliferation (Fig. 3c). The protocol:
Shown is a representative figure analyzed and presented as above. d, Western blot of destabilization of ERα protein by OP-1074.
Proliferation was measured using CyQuant fluorescent DNA-binding dye kit (ThermoFisher Scientific, #C7026) using 1:200 GR dye and reading fluorescence at 485 nm excitation and 538 nm emission on the Varioskan Lux multimodal plate reader.

With `CC1=C(c2ccc(O)cc2)[C@H](c2ccc(OCCN3CC[C@@H](C)C3)cc2)Oc2cc(O)ccc21` [OP-1074], on androgen receptor (AR), the “Agonist and antagonist activity on AR” value is “lacks agonist and antagonist activity”. Further, the IC50 in the assay on MCF-7 cells (MCF7, 168 h, read-out: MCF-7 IC50 proliferation (Fig. 3b)) came out at 9.2 nM; with MCF-7 cells (MCF7, read-out: IC50 proliferation) it was 7.2 ± 0.9 nM; in assay [1] (Homo sapiens, Ishikawa, 72 h, read-out: IC50 inhibition of E2-stimulated AP activity), 20 nM; with CAMA-1 cells, 5.7 nM. In addition, the “Antagonism of E2-stimulated AP activity” value in assay [1] (Ishikawa cells, 500 pM E2) is “completely antagonized E2”.
